In patent US20080253976A1, “Personal Care Compositions Comprising An Antimicrobial Blend of Essential Oils or Constituents Thereof” (priority 2007, published 2008):
Read-outs that look alike come from different tables or passages of the source.

Columns and labels:
Gingipain = assay: Inhibition of bacterial virulence factor Gingipain; assay type: biochemical, P. gingivalis; details: at 200 uM for compounds, 0.001% for oils/extracts
Source text: (§1) P. gingivalis is a gram-negative anaerobe implicated in periodontal disease in humans and companion animals. P. gingivalis infects the gingival sulcus, producing a number of virulence factors including bacterial enzymes such as gingipains, METase and Cystalysin. Gingipains act on several immune system molecules, including kinogens, complement factors, immunoglobins, resulting in fluid influx into the sulcus, neutrophil recruitment, and bleeding. The ultimate result is a host inflammatory response characterized by cyclooxygenase (COX) induction, metalloproteinase (MMP) expression, prostaglandin elevation and reactive oxygen elevations which result in tissue damage and bone resorption, eventually leading to tooth detachment. MMP's (including various subtypes, e.g., MMP 1, 2, 3, 8, 9, 12, 13), are host extracellular matrix proteases that contribute to tissue destruction and remodeling. COX enzymes catalyze the conversion of arachidonic acid into prostaglandins, which result in vasodilation, redness, puffiness and pain.
(§2) Where no data are reported is not an indication that the compound/active has no activity; rather that the compound was not tested for that activity.

METase = METase (Porphyromonas gingivalis, UniProt Q7MX71); assay: Inhibition of bacterial virulence factor METase; assay type: biochemical, P. gingivalis; details: read-out: METase % inhibition
METase, sequence (Q7MX71 whole entry): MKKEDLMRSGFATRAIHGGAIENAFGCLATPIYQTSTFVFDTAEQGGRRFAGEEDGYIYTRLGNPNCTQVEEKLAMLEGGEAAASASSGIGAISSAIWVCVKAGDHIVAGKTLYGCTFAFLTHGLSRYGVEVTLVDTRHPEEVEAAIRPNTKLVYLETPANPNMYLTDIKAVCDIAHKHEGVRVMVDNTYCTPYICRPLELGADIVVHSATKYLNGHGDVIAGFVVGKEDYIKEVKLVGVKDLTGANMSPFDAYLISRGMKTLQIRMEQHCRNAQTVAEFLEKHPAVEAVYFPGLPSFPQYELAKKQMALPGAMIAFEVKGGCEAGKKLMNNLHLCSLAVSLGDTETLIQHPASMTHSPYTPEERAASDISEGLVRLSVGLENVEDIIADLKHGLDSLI
Source text: as §1
(§3) Inhibition of the proteolytic action of gingipains on immuno-regulatory proteins should lead to a reduction in the inflammatory host-response and subsequent tissue damage. Other bacterial enzymes, for example, METase and Cystalysin, are involved in degrading sulfur-containing amino acids to produce volatile sulfur compounds (VSC's) such as hydrogen sulfide or methyl mercaptan that lead to bad breath or oral malodor. Inhibition of METase and Cystalysin is thus an important function for oral care agents as are inhibitory activities against key host pro-inflammatory factors including matrix metalloproteinases (MMP's), cyclooxygenases (COX) and prostaglandin (PGE2).
as §2

Cystalysin = assay: Inhibition of bacterial virulence factor Cystalysin; assay type: biochemical, P. gingivalis; details: at 200 uM for compounds, 0.001% for oils/extracts
Source text: as §1, §3, §2

COX-2 = target: T1, COX-2 (Homo sapiens, UniProt P35354); assay: Inhibition of host inflammation factor COX-2; assay type: biochemical; details: read-out: COX-2 % inhibition
T1 sequence (P35354 18-604): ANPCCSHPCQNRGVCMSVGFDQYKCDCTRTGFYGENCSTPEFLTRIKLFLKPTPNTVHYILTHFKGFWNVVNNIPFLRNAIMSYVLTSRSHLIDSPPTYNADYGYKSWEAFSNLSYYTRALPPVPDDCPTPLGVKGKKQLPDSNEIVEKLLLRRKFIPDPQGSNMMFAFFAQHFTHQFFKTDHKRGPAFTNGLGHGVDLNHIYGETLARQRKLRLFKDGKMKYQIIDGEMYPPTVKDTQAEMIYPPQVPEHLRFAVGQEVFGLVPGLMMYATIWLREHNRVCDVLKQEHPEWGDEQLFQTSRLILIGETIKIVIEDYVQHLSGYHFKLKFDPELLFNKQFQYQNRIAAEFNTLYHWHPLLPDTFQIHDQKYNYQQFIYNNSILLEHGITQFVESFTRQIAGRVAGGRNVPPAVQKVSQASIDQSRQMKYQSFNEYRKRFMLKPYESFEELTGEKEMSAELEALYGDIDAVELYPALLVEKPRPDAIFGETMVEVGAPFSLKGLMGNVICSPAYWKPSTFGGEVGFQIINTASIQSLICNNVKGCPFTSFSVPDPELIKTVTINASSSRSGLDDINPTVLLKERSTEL
Source text: as §1, §2

MMP (2, 3, 12) = assay: Inhibition of host inflammation factor MMP (2, 3, 12); assay type: biochemical; details: at 200 uM for compounds, 0.001% for oils/extracts
Source text: as §1, §2

PGE2 = assay: Inhibition of host inflammation factor PGE2; assay type: cell-based; details: read-out: PGE2 % inhibition
Source text: as §3, §2

[1] = test system: oral anaerobic bacterial biofilm containing Fusobacterium nucleatum; assay: In vitro biofilm growth inhibition model (30 second exposure, MIC); assay type: cell-based; details: lowest concentration that completely inhibited biofilm growth following a 30 second exposure
Procedure: The method involves forming a bacterial biofilm in a plastic uncoated 12-well tissue culture plate. The culture material is removed from the wells and the biofilm is treated with a test solution or appropriate control usually for 30 seconds. Subsequently, the biofilm is washed twice with sterile saline and fresh medium is placed on the biofilm which is then incubated at 37° C. overnight. The next day, the culture in each well is suspended and the optical density determined to assess biofilm growth.

[2] = test system: Total Facultative Anaerobes (TFA); assay: Plaque Chip Assay (PCA), Total Facultative Anaerobes count; assay type: cell-based, oral bacteria from whole saliva of healthy human donors; details: vs. water
Procedure: (§4) In further studies, individual essential oil compounds and blends were evaluated for germ kill efficacy against oral anaerobes. For comparison, a cetyl pyridinium chloride solution (350 ppm) and a commercially available essential oil mouthrinse (Listerine® Cool Mint with ˜0.258% essential oil level) were tested.
(§5) Aqueous solutions (comprising 1% poloxamer 407 and 15% ethanol) were prepared with the essential oil load fixed at 0.15%. […] The test solutions were used neat in this experiment. The essential oil compounds and blends were tested using the Plaque Chip Assay (PCA) method, developed in the Procter & Gamble laboratories. The PCA method measures a combination of the following parameters: antibacterial efficacy (bacteria or germ kill), biofilm dispersion efficacy/chemical removal (chemical cleaning, e.g., detergency without germ kill), biofilm prevention and/or inhibition efficacy (prevention of biofilm growth) and active substantivity (cumulative efficacy).
(§6) The PCA method uses unmodified, whole saliva (obtained from multiple healthy human donors) to grow a biofilm containing relevant oral species on the surface of hydroxyapatite (HA) discs (the ‘chip’) mounted in the cap of plastic tubes (Nunc™ Cryovial). HA chips are subjected to five one-minute treatment and re-growth cycles, designed to mimic typical oral care product usage (dentifrice, rinse, gel) over a 2½ day period. Fresh saliva is replaced after each treatment, wherein the saliva used serves both as an inoculum of relevant oral bacteria, and as a nutrient source for the growth of the biofilm. Sixteen hours after the final treatment cycle, the biofilm remaining on the chip is removed, and the number of viable bacteria contained within it are measured by standard agar plate counting on ETSA (Enriched Trypticase Soy Agar) and ETSA-NV (Enriched Trypticase Soy Agar Supplemented with Nalidixic Acid and Vancomycin) media. The number of colony forming units per unit volume (cfu/ml) is measured for Total Facultative Anaerobes (TFA) and Gram Negative Anaerobes (GNA). Results are summarized in Table 3 below reported as Log Reduction in TFA and GNA colony forming units provided by test formulations vs. control, i.e., water or base aqueous solution (comprising 1% poloxamer 407 and 15% ethanol). Reductions in TFA or GNA bacterial counts vs. control are reasonably predictive of in vivo efficacy, in particular plaque removal efficacy and breath malodor reduction. […] Particularly for blends containing 3 or more components, the relative amounts of each component can be adjusted to provide the best germ kill efficacy along with the desired flavor profile.

[3] = test system: Gram Negative Anaerobes (GNA); assay: Plaque Chip Assay (PCA), Gram Negative Anaerobes count; assay type: cell-based, oral bacteria from whole saliva of healthy human donors; details: vs. water
Procedure: as §4, §5, §6

COX-1 = COX-1 (Homo sapiens, UniProt P23219); assay: Inhibition of host inflammation factor COX-1; assay type: biochemical; details: at 200 uM for compounds, 0.001% for oils/extracts
COX-1, sequence (P23219 24-599): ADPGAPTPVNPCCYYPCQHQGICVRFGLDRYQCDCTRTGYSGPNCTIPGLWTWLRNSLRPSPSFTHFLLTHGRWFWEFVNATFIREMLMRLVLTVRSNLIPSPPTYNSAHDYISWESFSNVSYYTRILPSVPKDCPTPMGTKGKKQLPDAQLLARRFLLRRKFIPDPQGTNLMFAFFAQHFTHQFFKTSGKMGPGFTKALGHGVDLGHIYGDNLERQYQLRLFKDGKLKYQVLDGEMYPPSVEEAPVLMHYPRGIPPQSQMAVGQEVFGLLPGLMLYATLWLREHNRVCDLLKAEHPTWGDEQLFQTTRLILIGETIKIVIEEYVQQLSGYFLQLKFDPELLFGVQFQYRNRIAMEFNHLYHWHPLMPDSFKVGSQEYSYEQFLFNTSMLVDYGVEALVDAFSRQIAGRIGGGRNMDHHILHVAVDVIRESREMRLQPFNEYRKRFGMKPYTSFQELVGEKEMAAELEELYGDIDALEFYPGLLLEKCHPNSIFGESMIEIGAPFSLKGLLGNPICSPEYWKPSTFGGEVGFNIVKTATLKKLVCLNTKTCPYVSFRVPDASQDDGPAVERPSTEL

[4] = essential oil at 0.15% solution, five one-minute treatments
[5] = at 200 uM for compounds, 0.001% for oils/extracts

Structure (SMILES) | Gingipain % inhibition (Gingipain) | inhibition at 200 µM (METase) | Cystalysin % inhibition (Cystalysin) | inhibition at 200 µM (COX-2) | MMP (2, 3, 12) % inhibition (MMP (2, 3, 12)) | inhibition at 200 µM (PGE2) | Total Oil Level Inhibiting Biofilm Growth (MIC), single component [1] | Log Reduction in cfu/ml vs Control, TFA [2, 4] | Log Reduction in cfu/ml vs Control, GNA [3, 4] | Log Reduction in cfu/ml vs Control, TFA ([2]; 350 ppm solution) | Log Reduction in cfu/ml vs Control, GNA ([3]; 350 ppm solution) | inhibition at 200 µM (PGE2; [5]) | inhibition at 200 µM (COX-1) | inhibition at 200 µM (COX-2; [5])
Cc1ccc(C(C)C)cc1O [Carvacrol] | + (% inhibition <25% at 200 uM for compounds, 0.001% for oils/extracts) | < 25% | + (% inhibition <25% at 200 uM for compounds, 0.001% for oils/extracts) | > 25% | + (% inhibition <25% at 200 uM for compounds, 0.001% for oils/extracts) | > 75% | 0.1% | 0.08 log cfu/ml | 0.42 log cfu/ml |  |  |  |  | 
CCCCCCCCCCCCCCCC[n+]1ccccc1 [Cetylpyridinium Chloride (CPC), Cetylpyridinium Chloride, reference compound] |  |  |  |  |  |  |  |  |  | 1.45 log cfu/ml | 1.31 log cfu/ml |  |  | 
CC(C)=CCCC(C)=CC=O [Citral] | + (% inhibition <25% at 200 uM for compounds, 0.001% for oils/extracts) | < 25% |  |  | + (% inhibition <25% at 200 uM for compounds, 0.001% for oils/extracts) |  | 0.2% | 0.33 log cfu/ml | 0.72 log cfu/ml |  |  | > 50% |  | 
CC12CCC(CC1)C(C)(C)O2 [Eucalyptol] | + (% inhibition <25% at 200 uM for compounds, 0.001% for oils/extracts) | < 25% | + (% inhibition <25% at 200 uM for compounds, 0.001% for oils/extracts) |  | + (% inhibition <25% at 200 uM for compounds, 0.001% for oils/extracts) |  | 0.1% | −0.06 log cfu/ml | 0.38 log cfu/ml |  |  | > 75% |  | 
C=CCc1ccc(O)c(OC)c1 [Eugenol] | + (% inhibition <25% at 200 uM for compounds, 0.001% for oils/extracts) | < 25% | + (% inhibition <25% at 200 uM for compounds, 0.001% for oils/extracts) | > 25% | + (% inhibition <25% at 200 uM for compounds, 0.001% for oils/extracts) | > 75% | 0.2% | 0.09 log cfu/ml | 0.70 log cfu/ml |  |  |  |  | 
CC(C)=CCC/C(C)=C/CO [Geraniol] |  | < 25% | + (% inhibition <25% at 200 uM for compounds, 0.001% for oils/extracts) |  | + (% inhibition <25% at 200 uM for compounds, 0.001% for oils/extracts) |  | 0.1% | 0.47 log cfu/ml | 0.60 log cfu/ml |  |  | > 25% | > 50% | > 25%
Cc1ccc(C(C)C)c(O)c1 [Thymol, reference compound] |  |  |  |  |  |  | 0.1% |  |  |  |  |  |  | 
